Publication PMC11202169, “A Novel Fluorescence-Based Microplate Assay for High-Throughput Screening of hSULT1As Inhibitors” (Biosensors, 2024)

Columns and labels:
hSULT1A3 = target: T1, hSULT1A3 (Homo sapiens, UniProt P0DMM9); experiment: Enzymatic kinetics of hSULT1A3-catalyzed HN-241 4-O-sulfation; type: biochemical
T1 construct: 6-histidine tag (N); TEV site (N); made in house; host or cells: Escherichia coli BL21 (DE3), pET29a(+)
Protocol: (§1) The enzymatic kinetic parameters of hSULT1As-catalyzed HN-241 4-O-sulfation were measured by incubating increasing concentrations of HN-241 with each of the hSULT1As for a certain period. The fitting equations included Equation (2), the Michaelis–Menten equation, and Equation (3) for enzyme kinetics with substrate inhibition. Related kinetic parameters were fitted by GraphPad Prism 8.0 (San Diego, CA, USA). (2) V=Vmax × [S]/Km+[S] (3) V=Vmax × [S]/Km+[S](1+[S]/Ki)
(§2) [S] refers to the concentration of HN-241, Vmax is the maximum rate of hSULT1As-catalyzed HN-241 4-O-sulfation, Km is the substrate concentration at the half Vmax, and Ki represents the dissociation constant for the binding of the substrate to the inhibitory site.

hSULT1A2 = target: T2, hSULT1A2 (Homo sapiens, UniProt P50226); experiment: Enzymatic kinetics of hSULT1A2-catalyzed HN-241 4-O-sulfation; type: biochemical
T2 construct: 6-histidine tag (N); TEV site (N); made in house; host or cells: Escherichia coli BL21 (DE3), pET29a(+)
Protocol: as §1, §2

hSULT1A1 = target: T3, hSULT1A1 (Homo sapiens, UniProt P50225); experiment: Enzymatic kinetics of hSULT1A1-catalyzed HN-241 4-O-sulfation; type: biochemical
T3 construct: 6-histidine tag (N); TEV site (N); made in house; host or cells: Escherichia coli BL21 (DE3), pET29a(+)
Protocol: as §1, §2

[1] = Fluorescence quantum yield; type: physicochemical; conditions: physiological conditions; standard quinine sulfate (Φ = 0.55)
Protocol: The fluorescence quantum yield is defined as the ratio of the number of photons emitted to the number of photons absorbed, which is a key parameter in fluorescence spectroscopy that describes the efficiency of the fluorescence process. The fluorescence quantum yields (Φ) of HN-241 and HN-241 sulfate were measured using quinine sulfate in 50 mM aqueous H2SO4 (Φ = 0.55) as the standard, and calculated according to the following Equation (1). (1) Yu=Ys × Fu × As/Fs × Au
“A” represents the absorbance at the excitation wavelength, “F” denotes the integral fluorescence intensity, and the subscripts “s” and “u” refer to the standard and sample, respectively.

hSULT1As [2] = experiment: O-sulfation and spectroscopic changes with hSULT1As (statements for all isoforms together); type: biochemical, human; conditions: substrate 10 μM, all tested hSULT1A isozymes
Protocol: The incubation system consisted of Tris-HCl buffer (pH 7.4, 50 mM), MgCl2 (5 mM), DTT (200 μM), recombinant hSULT1As (29 pmol), and each fluorophore or 4-HN derivative (10 μM). After pre-incubation at 37 °C for 3 min, the reaction was initiated by adding an excess of PAPS (200 μM). Following 1 h incubation, the reaction was terminated with the addition of an equal volume of ice-cold acetonitrile. After centrifugation at 20,000× g for 20 min at 4 °C, the supernatant was collected for HPLC analysis. The mobile phase consisted of 10 mM aqueous ammonium acetate (A) and acetonitrile (B) at a flow rate of 0.4 mL/min. Gradient elution was performed under the following conditions: 0–2.0 min, 5% B; 2.0–10.0 min, 5–95% B; 10.0−12.0 min, 95% B; 12.0–12.5 min, 95–5% B; and 12.5–15.0 min, 5% B.
The spectroscopic changes in these fluorophores following O-sulfation were investigated. The incubation system was the same as that used in Section 2.3. The emission spectra of eight fluorophores in the presence and absence of three hSULT1A isoforms were determined using BioTek Synergy H1.

hSULT1As [3] = test system: hSULT1As; parameters: method as in PMID 12264750, PMID 35713964, PMID 6786543; conditions: ascorbic acid as competitive inhibitor of hSULT1As; ref [13],[14],[15]; cited from earlier work

T1 sequence (P0DMM9 whole entry): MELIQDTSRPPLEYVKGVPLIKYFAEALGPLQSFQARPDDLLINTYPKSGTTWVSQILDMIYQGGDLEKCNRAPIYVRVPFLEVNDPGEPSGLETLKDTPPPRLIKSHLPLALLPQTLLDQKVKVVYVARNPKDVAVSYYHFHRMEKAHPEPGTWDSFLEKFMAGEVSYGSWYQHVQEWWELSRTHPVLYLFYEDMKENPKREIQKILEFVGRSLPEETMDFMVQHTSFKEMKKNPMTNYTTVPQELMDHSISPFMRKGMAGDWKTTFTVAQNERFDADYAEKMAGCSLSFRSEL
T2 sequence (P50226 whole entry): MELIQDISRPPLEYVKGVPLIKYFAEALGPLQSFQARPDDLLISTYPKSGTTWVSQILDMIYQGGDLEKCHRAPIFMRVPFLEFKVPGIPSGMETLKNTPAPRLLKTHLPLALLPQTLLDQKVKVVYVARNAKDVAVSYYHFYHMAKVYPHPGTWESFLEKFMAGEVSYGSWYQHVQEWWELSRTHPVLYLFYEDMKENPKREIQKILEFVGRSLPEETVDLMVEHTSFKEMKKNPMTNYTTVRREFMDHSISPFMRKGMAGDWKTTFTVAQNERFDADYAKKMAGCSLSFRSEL
T3 sequence (P50225 whole entry): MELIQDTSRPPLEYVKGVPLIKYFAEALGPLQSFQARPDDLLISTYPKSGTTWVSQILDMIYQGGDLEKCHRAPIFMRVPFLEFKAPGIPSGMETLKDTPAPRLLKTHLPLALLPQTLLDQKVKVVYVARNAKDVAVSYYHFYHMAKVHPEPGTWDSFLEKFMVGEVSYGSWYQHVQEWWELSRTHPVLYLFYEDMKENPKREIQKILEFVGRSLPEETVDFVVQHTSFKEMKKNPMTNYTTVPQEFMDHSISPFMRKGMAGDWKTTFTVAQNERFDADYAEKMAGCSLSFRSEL

CCN1C(=O)c2cccc3c(O)ccc(c23)C1=O [HN-241, 4-hydroxy-N-ethyl-1,8-naphthalimide]
Clint (hSULT1A3; hSULT1A3): 683.26 μL/min/mg Protein | Vmax (hSULT1A3; hSULT1A3, Michaelis–Menten kinetics): 8814.00 pmol/min/mg Protein | Clint (hSULT1A2; hSULT1A2): 1440.94 μL/min/mg Protein | Vmax (hSULT1A2; hSULT1A2, Michaelis–Menten kinetics): 6441.00 pmol/min/mg Protein | Clint (hSULT1A1; HN-241 4-O-sulfation): 24,265.93 μL/min/mg Protein | Ki (hSULT1A1; substrate inhibition constant of HN-241 (binding of substrate to the inhibitory site)): 1370 ± 400 nM | Fluorescence quantum yield (Φ) [1]: 0.02 | O-sulfation by hSULT1As (in words) (hSULT1As [2]): highest O-sulfation rate

O=C1O[C@H]([C@@H](O)CO)C(O)=C1O [ascorbic acid]
Boost of the bioavailability of ethinylestradiol (hSULT1As [3]): approximately 50%
